{
  "source": "paper PMC10245146",
  "about": "“CNS4 causes subtype‐specific changes in agonist efficacy and reversal potential of permeant cations in NMDA receptors” (Pharmacology Research & Perspectives, 2023)",
  "key": {"GluN1/2A NMDA receptors [1]": {"biological_target": "T1, GluN1/2A NMDA receptors (UniProt P35439+Q12879)", "T1 construct": "expressed in transfected cells; host or cells: Xenopus oocytes (cRNA injection)", "T1 sequence (Q12879 23-1464, other chains not shown)": "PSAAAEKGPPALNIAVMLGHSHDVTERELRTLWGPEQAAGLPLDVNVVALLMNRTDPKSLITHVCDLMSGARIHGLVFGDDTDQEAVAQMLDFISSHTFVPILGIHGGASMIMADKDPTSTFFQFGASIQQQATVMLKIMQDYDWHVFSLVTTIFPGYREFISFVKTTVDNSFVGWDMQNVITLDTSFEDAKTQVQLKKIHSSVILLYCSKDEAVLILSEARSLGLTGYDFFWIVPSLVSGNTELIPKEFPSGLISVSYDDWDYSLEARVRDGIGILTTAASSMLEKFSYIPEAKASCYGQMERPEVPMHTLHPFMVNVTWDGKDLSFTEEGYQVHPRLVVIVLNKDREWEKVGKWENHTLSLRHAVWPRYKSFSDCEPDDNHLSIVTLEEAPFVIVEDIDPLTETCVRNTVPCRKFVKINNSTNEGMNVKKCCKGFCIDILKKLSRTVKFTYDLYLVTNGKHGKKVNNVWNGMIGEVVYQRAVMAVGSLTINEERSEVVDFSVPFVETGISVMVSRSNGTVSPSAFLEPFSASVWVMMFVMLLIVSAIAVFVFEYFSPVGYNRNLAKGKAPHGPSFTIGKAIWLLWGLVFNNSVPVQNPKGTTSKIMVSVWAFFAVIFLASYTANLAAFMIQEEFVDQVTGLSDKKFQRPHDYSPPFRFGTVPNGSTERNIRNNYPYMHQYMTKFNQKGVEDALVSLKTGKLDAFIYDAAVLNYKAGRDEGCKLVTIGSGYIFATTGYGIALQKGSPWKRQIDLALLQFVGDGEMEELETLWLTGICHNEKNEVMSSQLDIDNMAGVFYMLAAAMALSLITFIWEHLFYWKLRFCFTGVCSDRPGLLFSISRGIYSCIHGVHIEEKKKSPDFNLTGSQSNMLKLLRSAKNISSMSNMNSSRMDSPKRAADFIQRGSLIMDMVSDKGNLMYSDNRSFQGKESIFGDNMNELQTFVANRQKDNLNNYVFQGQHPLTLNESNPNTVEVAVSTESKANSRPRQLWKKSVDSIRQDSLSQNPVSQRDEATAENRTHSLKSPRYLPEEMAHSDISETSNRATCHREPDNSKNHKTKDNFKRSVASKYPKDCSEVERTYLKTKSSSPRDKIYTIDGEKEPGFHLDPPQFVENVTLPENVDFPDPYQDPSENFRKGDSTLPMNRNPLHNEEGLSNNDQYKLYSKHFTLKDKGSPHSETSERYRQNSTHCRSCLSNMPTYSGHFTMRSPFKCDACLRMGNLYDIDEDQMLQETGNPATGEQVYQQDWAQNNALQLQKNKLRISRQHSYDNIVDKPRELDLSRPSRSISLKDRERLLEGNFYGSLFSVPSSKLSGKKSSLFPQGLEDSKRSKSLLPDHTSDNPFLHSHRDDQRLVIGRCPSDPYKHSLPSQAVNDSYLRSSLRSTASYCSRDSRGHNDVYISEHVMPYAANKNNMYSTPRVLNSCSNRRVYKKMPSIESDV", "assay": "TEVC agonist dose-response, Xenopus oocytes expressing 1/2A", "assay_type": "cell-based", "from_the_text": "NMDA receptor constructs: cDNA encoding the NMDA receptor1a subunit (GluN1a) was obtained from Dr. Nakanishi (Kyoto, Japan). cDNA encoding the GluN2B (pci_sepGluN2B), originally developed in the Malinow lab,[33] was purchased from Addgene (cat# 23998), Cambridge, MA. cDNA encoding the GluN2C and GluN2D were purchased from GenScript, New Jersey, USA. Mutated GluN1, 2A and 2B cDNA constructs capable of assembling as GluN1/2A/2B triheteromeric (1/2AB) receptors[34] were obtained from Dr. Paoletti (Laboratoire de Neurobiologie, CNRS). These constructs have been previously tested for 1/2AB receptor activity of GluN1/2A receptor‐selective potentiators.[35] […] Plasmids were linearized with NotI (GluN1a and all five GluN1 mutants) or Avrll (GluN2B), or BstB1 (GluN2C and GluN2D) and transcribed in vitro with T7 (GluN1a, GluN1/2A, GluN2B, GluN2C & GluN2D), and SP6 (GluN1 mutants) RNA polymerase using the mMessage mMachine transcription kits (Invitrogen by Thermo Fisher Scientific).\nStage IV frog oocytes were obtained from Xenopus‐I, (Ann Arbor, MI, USA). NMDA receptor subunit cRNAs were suspended in nuclease free sterile water. GluN1A, GluN2B, GluN2C, GluN2D and GluN1/2A/2B cRNAs were mixed in a ratio of 1:1–3. 50 nL of the final cRNA mixture was microinjected (40–70 ng total) into the oocyte cytoplasm. Oocytes were incubated in ND‐96 solution at 18°C prior to electrophysiological recordings (2–5 days).\nElectrophysiological responses were measured using a standard two‐microelectrode voltage‐clamp workstation (Warner Instruments model OC‐725C) designed to provide a fast clamp of large cells. The recording buffer contained 116 mM NaCl, 2 mM KCl, 0.3 mM BaCl2, and 5 mM HEPES, pH 7.4. Response magnitude was determined in Xenopus oocytes expressing different NMDA receptor subunits (GluN1/2A, 1/2B, 1/2C, 1/2D, and 1/2A/2B) by the steady plateau response elicited by bath application of different agonist concentrations. […] All data points were obtained from the steady state currents unless stated otherwise. Dose–response relationships were fit to an appropriate curve‐fitting equation using GraphPad Prism‐7. Non‐linear regression was used to calculate EC50, IC50, and fold change or percentage maximal response. Curves were fit using the following equations as performed in the previous studies, [37]: Y=100/1+10^LogEC50−XorY=Bottom+Top−Bottom/1+10^LogEC50−X . Statistical significance was determined at the overall alpha level 0.05, using appropriate statistical methods as described in all figure captions. Technical and biological replicates are explicitly mentioned in each figure legend, as n = X (Y). X represents technical repeats (number of traces) and Y represents biological repeats (number of oocytes or HEK293T cells studied). […]"}, "GluN1/2A NMDA receptors [2]": {"biological_target": "T1, GluN1/2A NMDA receptors", "assay": "Current-voltage (I-V) relationship, Xenopus oocytes expressing 1/2A", "assay_type": "cell-based", "details": "for Difference in reversal potential (∆Erev) between W and WO CNS4 / Difference in reversal potential (∆Erev) between WO and W CNS4: 100 μM CNS4; for Reversal potential (Erev): with 100 μM CNS4", "procedure": "There are two sets of recording solutions used for the I‐V assay: solutions with normal (1) and low (2) Ca^2+ concentrations. The normal Ca^2+ solutions contained (mM): 115 NaCl, 1 KCl, 1.8 CaCl2, 10 HEPES. PH was adjusted to 7.2. Low calcium solutions contained 0.018 mM CaCl2 and other components were the same as normal Ca^2+ solution. To study the effects of CNS4 in the absence of extracellular Na^+, NaCl was replaced with impermeable agent, N‐methyl‐D‐glucamine (NMDG, […]). HCl was used to dissolve the NMDG and to adjust the PH to 7.2. NMDG‐containing solutions are termed Nafree. […] There were four different agonist solutions used for each set of Ca^2+ recordings: (1) Agonist, (2) Agonist+CNS4, (3) Agonist in Nafree solution, (4) Agonist+CNS4 in Nafree solution. Each solution was applied to the oocytes in sequential order and the same order was followed for all I‐V recordings. Low Ca^2+ experiments were carried out in the same way as normal Ca^2+ experiments, except that they had 0.018 mM Ca^2+ in all four agonist and recording solutions. Steady state current responses evoked by these solutions at each voltage step were measured. Reversal potentials (Erev) were obtained from x‐intercept values when y = 0 after fitting the I‐V data using a third order polynomial, non‐linear curve fitting equation Y=B0+B1^*X+B2^*X^2+B3^*X^3 . Erev obtained from each oocyte with different agonists were compared in a pairwise manner. These differences were then averaged. Paired or unpaired student t‐test was performed to compare the data as mentioned in each figure legend.\nFIGURE 5 Effect on CNS4 on agonist induced current directions in 1/2A receptors. Current –Voltage (I‐V) relationship of 1/2A receptors was studied with normal (A) and low (B) CaCl2 containing extracellular solutions. […] (C) Comparison of reversal potentials values. Dark and light blue circles indicate normal and low CaCl2 experiments, respectively. Dark and light red squares indicate equivalent I‐V experiments with NMDG (Nafree). Dotted and thick lines denote the absence (empty circles or squares) and presence (filled circles or squares) of 100 μM CNS4, respectively. Traces (Ai&ii, Bi&ii) represent the current response at −90 mv. N = 5 (5) & n = 7(7) for normal & low Ca^2+ assays, respectively. Erev obtained from each oocyte with different agonists were compared in a pairwise manner. Paired student t‐test was performed to compare the data presented at Ci. Unpaired student's t‐test was performed to compare the difference in reversal potentials (triangles). *p < .05, **p < .01, ***p < .001, […]."}},
  "data": [
    {"molecule": "O=C(NC(=S)N1CCCCC1c1cccnc1)c1ccc(F)cc1", "note": "(centres unmarked) [CNS4]", "values": [
      {"measurement": "100 μM glutamate induced relative current amplitude (glutamate efficacy)", "setting": "GluN1/2A NMDA receptors [1]; absence of glycine, presence of CNS4, n = 6(3)", "result": "0.04 ± 0.02", "unit": "fold"},
      {"measurement": "Glutamate efficacy", "setting": "GluN1/2A NMDA receptors [1]; in the presence of 30 μM glycine and 30 μM CNS4, n = 9 (3)", "result": "297.8 ± 71.06", "unit": "fold"},
      {"measurement": "Glycine efficacy: relative fold change in current at highest glycine concentration", "setting": "GluN1/2A NMDA receptors [1]; with 30 μM CNS4, 100 μM glutamate constant, relative to 1 μM glycine, average ± SEM, p = .19", "result": "2.59 ± 0.36", "unit": "fold"},
      {"measurement": "Glutamate efficacy: relative fold change in current at highest glutamate concentration", "setting": "GluN1/2A NMDA receptors [1]; with 30 μM CNS4, 100 μM glycine constant, relative to 1 μM glutamate, p = .2898", "result": "2.95 ± 0.45", "unit": "fold"},
      {"measurement": "Difference in reversal potential (∆Erev) between W and WO CNS4", "setting": "GluN1/2A NMDA receptors [2]; low Ca2+, Nafree, n = 7", "result": "−7.32 ± 3.95", "unit": "mV"},
      {"measurement": "Difference in reversal potential (∆Erev) between W and WO CNS4", "setting": "GluN1/2A NMDA receptors [2]; low Ca2+, with Na+, n = 6", "result": "8.76 ± 3.15", "unit": "mV"},
      {"measurement": "Difference in reversal potential (∆Erev) between WO and W CNS4", "setting": "GluN1/2A NMDA receptors [2]; normal Ca2+, Nafree, n = 3", "result": "−6.79 ± 1.98", "unit": "mV"},
      {"measurement": "Difference in reversal potential (∆Erev) between WO and W CNS4", "setting": "GluN1/2A NMDA receptors [2]; normal Ca2+, with Na+, n = 4", "result": "24.85 ± 3.26", "unit": "mV"},
      {"measurement": "Reversal potential (Erev)", "setting": "GluN1/2A NMDA receptors [2]; 1.8 mM (normal) Ca2+, with Na+, 100 μM glutamate + glycine, without CNS4 −12.05 ± 8.18, p = .004", "result": "10.49 ± 8.23", "unit": "mV"},
      {"measurement": "Reversal potential (Erev)", "setting": "GluN1/2A NMDA receptors [2]; low Ca2+, Nafree, without CNS4 −61.38 ± 3.99, p = .113", "result": "−68.71 ± 4.82", "unit": "mV"},
      {"measurement": "Reversal potential (Erev)", "setting": "GluN1/2A NMDA receptors [2]; normal Ca2+, Nafree (NMDG), without CNS4 −18.16 ± 5.09, p = .16", "result": "−32.93 ± 7.03", "unit": "mV"}
    ]}
  ]
}
